Laboratory results as given in patent US20130244879A1, “USE OF LIPO-CHITOOLIGOSACCHARIDES TO INITIATE EARLY FLOWERING AND FRUIT DEVELOPMENT IN PLANTS AND RELATED METHODS AND COMPOSITIONS” (NOVOZYMES BIOLOGICALS HOLDING A/S, priority 2003, published 2013).

Columns and labels:
Format in all cases: in vivo
[1] = system: Cobra tomatoes; assay: Trial 1: LCO dose and delivery medium on greenhouse tomato (Cobra); conditions: for more flowers than other treatments and control: 50 ng LCO
Procedure: Cobra (a hybrid cultivar) was used to examine optimum application dose between 10 and 100 ng/plant at one or two applications and the LCO delivery medium. The levels chosen were the extremes of beneficial doses determined previously in tomato field trials. The delivery media tested were LCO in water, Apex and centrifuged Apex. The first application of LCO was made 10 days after transplanting. When applied a second time it was 2 weeks after the first application. The following parameters were tested: leaf number, plant height, number of cluster, number of flower, number of fruit. Observations were made continuously for approximately a two-month period, at one-week intervals until plant growth was limited by pot bound roots. The cobra seedlings were transplanted 32 days after seeding, the first application was 10 days thereafter, the second application was 14 days after the first application. The fruits were harvested 6 weeks after the second application.

[2] = system: greenhouse-grown tomato plants; assay: Experiments 1 and 2: effect of LCO on tomato flowering; conditions: for difference in flowering between LCO treated plants and control: Experiment 2
Procedure: Two experiments were performed to investigate effect of LCO on plant's flowering using greenhouse-grown tomato plants.

[3] = system: Impatiens; assay: Experiment 5: foliar application of LCO to bedding plants (Impatiens)
Excerpt: This is a growth room study. Seeds of garden plant species were selected on the basis of seed-purchase popularity (Norseco, Montreal), grown in trays of Pro-Mix (NB. trademarked name) Seeding Medium, and at some size were transplanted into trays of 36 and 32 wells containing the same medium. Growth proceeded under lights in the growth room. Some 2 weeks before expected flowering, 16 young plants were sprayed with each of various levels of LCO leaving control plants untreated. The results are presented in Table 5A on bud formation and where possible opened flowers.

[4] = system: sweet corn; assay: Experiment 8: foliar application of LCO on sweet corn
Excerpt: Fertilizer (36-12-18) was applied to the corn field at 500 kg/ha before seeding. A machine planter was employed to sow sweet corn grain. Plot size was 4×4.5=18 M^2, and 6 rows/plot. To protect corn ears from raccoons and other animal damage, sweet corn plants were protected with an electric fence around the plots after silking. LCO was applied once 40 days after sowing or/and twice, 40 days after sowing and 58 days after sowing at a rate of 200 L/ha for the first application and 300 L/ha for the second application. Corn was harvested 80 days after sowing, from the two middle rows and corn ears reaching 12 cm or longer were counted as marketable.

[5] = system: Ridgetown canning tomato; assay: Experiment 10: effect of LCO on Ridgetown canning tomato; conditions: for Fruit number (on 24 plants) / Fruit number Increase vs. CK (%) / Fruit weight (kg/24 plants) / Fruit weight Increase vs. CK (%): first harvesting
Procedure: The experiment was conducted at Ridgetown College, University of Guelph, Ridgetown, Ontario. Tomatoes were transplanted in single twin rows, 7 m in length spaced 1.65 m apart. Treatments of LCO were applied three times, two weeks before flowering (28 days after transplant), two weeks after flowering (52 days after transplant) and six weeks after flowering (69 days after transplant). Spray applications were applied using a specialized, small plot research CO2 sprayer with a two-nozzled, hand-held boom applying 200 L/ha of spray. Rates were determined based on 38 tomato plants per plot, replicated 4 times, equaling 152 plants per treatment. Early fruit was harvested for yield evaluation on Aug. 20, 2003.

[6] = applied 2 weeks before and after flowering

Lipo-chitooligosaccharides [LCO]
Number of Flowers/Plant ([1]; 10 ng, Dec. 30): 1.2 | Number of Flowers/Plant ([1]; 10 ng, Jan. 07): 2.4 | Number of Fruit/Plant ([1]; 10 ng, Jan. 07): 0.3 | Number of Flowers/Plant ([1]; 10 ng, Jan. 15): 4.4 | Number of Fruit/Plant ([1]; 10 ng, Jan. 15): 1.8 | Number of Flowers/Plant ([1]; 10 ng, Jan. 22): 5.6 | Number of Fruit/Plant ([1]; 10 ng, Jan. 22): 2.1 | Number of Flowers/Plant ([1]; 10 ng, Jan. 31): 8.1 | Number of Fruit/Plant ([1]; 10 ng, Jan. 31): 2.5 | Fruit Weight ([1]; 10 ng, Mean of bases): 87.09 Gram/Plant | Fruit Weight ([1]; 10 ng, base Bacterial Camer): 97.97 Gram/Plant | Fruit Weight ([1]; 10 ng, base Bacterial Supernatent): 67.2 Gram/Plant | Fruit Weight ([1]; 10 ng, base Water): 96.11 Gram/Plant | early yield (fruit weight) vs untreated control ([1]; 50 ng LCO treatment): statistically significant effect | more flowers than other treatments and control ([1]; January 15): 21% | more flowers than other treatments and control ([1]; January 22): 14% | Number of Flowers/Plant ([1]; 50 ng, Dec. 30): 0.97 | Number of Flowers/Plant ([1]; 50 ng, Jan. 07): 2.5 | Number of Fruit/Plant ([1]; 50 ng, Jan. 07): 0.33 | Number of Flowers/Plant ([1]; 50 ng, Jan. 15): 5.2 | Number of Fruit/Plant ([1]; 50 ng, Jan. 15): 2.2 | Number of Flowers/Plant ([1]; 50 ng, Jan. 22): 6.7 | Number of Fruit/Plant ([1]; 50 ng, Jan. 22): 2.5 | Number of Flowers/Plant ([1]; 50 ng, Jan. 31): 8.7 | Number of Fruit/Plant ([1]; 50 ng, Jan. 31): 2.9 | Fruit Weight ([1]; 50 ng, Mean of bases): 104.26 Gram/Plant | Fruit Weight ([1]; 50 ng, base Bacterial Camer): 103.32 Gram/Plant | Fruit Weight ([1]; 50 ng, base Bacterial Supernatent): 100.48 Gram/Plant | Fruit Weight ([1]; 50 ng, base Water): 108.99 Gram/Plant | Number of Flowers/Plant ([1]; 100 ng, Dec. 30): 0.9 | Number of Flowers/Plant ([1]; 100 ng, Jan. 07): 2.2 | Number of Fruit/Plant ([1]; 100 ng, Jan. 07): 0.37 | Number of Flowers/Plant ([1]; 100 ng, Jan. 15): 4.4 | Number of Fruit/Plant ([1]; 100 ng, Jan. 15): 1.7 | Number of Flowers/Plant ([1]; 100 ng, Jan. 22): 6.2 | Number of Fruit/Plant ([1]; 100 ng, Jan. 22): 2.1 | Number of Flowers/Plant ([1]; 100 ng, Jan. 31): 8.7 | Number of Fruit/Plant ([1]; 100 ng, Jan. 31): 2.6 | Fruit Weight ([1]; 100 ng, Mean of bases): 87.99 Gram/Plant | Fruit Weight ([1]; 100 ng, base Bacterial Camer): 66.26 Gram/Plant | Fruit Weight ([1]; 100 ng, base Bacterial Supernatent): 109.13 Gram/Plant | Fruit Weight ([1]; 100 ng, base Water): 88.57 Gram/Plant | advance of flowering over control ([1]; Trial 1, FIG. 5, Table 3): 4 to 5 days | advance in early fruiting over control ([1]; Trial 1, second graph): 8 to 9 days | optimal application (early fruit set) ([1]; three to four weeks after application): approximately 50 ng per plant | LCO treated plants flowered 3 days earlier than control ([2]; Experiment 1): over 80% | shift in time of flowering ([2]; Experiment 1): 3 days | more plants flowering as compared to control ([2]; Experiment 1, day 4 of assessment): 35% | more plants flowering as compared to control ([2]; Experiment 1, day I of assessment): 25% | difference in flowering between LCO treated plants and control ([2]; day 3 of assessment): 20% | difference in flowering between LCO treated plants and control ([2]; initially): 10% | Total Number of Impatiens buds ([3]; 20 ml/16 plants of 10^−7M LCO): 71 | Total Number of Impatiens buds ([3]; 20 ml/16 plants of 10^−8M LCO): 65 | Total Number of Impatiens buds ([3]; 20 ml/16 plants of 10^−9M LCO): 85 | Total Number of Impatiens buds ([3]; 50 ml/16 plants of 3 × 10^−8M LCO): 66 | Average Length (cm)/ear ([4]; 10^−7M once): 13.12 c cm | Ear No/plant ([4]; 10^−7M once): 0.934 | Ear Weight (kg)/ha ([4]; 10^−7M once): 4383.3 kg/ha | Ear/ha ([4]; 10^−7M once): 65416.7 ab /ha | Marketable ears/ha ([4]; 10^−7M once): 25000.0 /ha | Average Length (cm)/ear ([4]; 10^−7M twice): 13.81 ab cm | Ear No/plant ([4]; 10^−7M twice): 0.935 | Ear Weight (kg)/ha ([4]; 10^−7M twice): 5000.0 kg/ha | Ear/ha ([4]; 10^−7M twice): 70833.3 a /ha | Marketable ears/ha ([4]; 10^−7M twice): 30416.7 /ha | Average Length (cm)/ear ([4]; 10^−8M once): 13.24 bc cm | Ear No/plant ([4]; 10^−8M once): 0.905 | Ear Weight (kg)/ha ([4]; 10^−8M once): 4800.0 kg/ha | Ear/ha ([4]; 10^−8M once): 67083.3 ab /ha | Marketable ears/ha ([4]; 10^−8M once): 26250.0 /ha | Average Length (cm)/ear ([4]; 10^−8M twice): 13.64 abc cm | Ear No/plant ([4]; 10^−8M twice): 0.856 | Ear Weight (kg)/ha ([4]; 10^−8M twice): 5150.0 kg/ha | Ear/ha ([4]; 10^−8M twice): 62083.3 ab /ha | Marketable ears/ha ([4]; 10^−8M twice): 30000.0 /ha | Average Length (cm)/ear ([4]; 10^−9M once): 13.68 abc cm | Ear No/plant ([4]; 10^−9M once): 0.928 | Ear Weight (kg)/ha ([4]; 10^−9M once): 4266.7 kg/ha | Ear/ha ([4]; 10^−9M once): 68333.3 a /ha | Marketable ears/ha ([4]; 10^−9M once): 29166.7 /ha | Average Length (cm)/ear ([4]; 10^−9M twice): 13.43 bc cm | Ear No/plant ([4]; 10^−9M twice): 0.886 | Ear Weight (kg)/ha ([4]; 10^−9M twice): 4033.3 kg/ha | Ear/ha ([4]; 10^−9M twice): 56666.7 bc /ha | Marketable ears/ha ([4]; 10^−9M twice): 25000.0 /ha | total number of sweet corn ears ([4]; foliar application in the range of 10^−8-10^−7M): significantly increased | increased fruit number [5, 6]: up to 20% | increased fruit weight [5, 6]: up to 16% | Fruit number (on 24 plants) ([5]; treatment 0-50-0): 209AB | Fruit number Increase vs. CK (%) ([5]; treatment 0-50-0): 14.2% | Fruit weight (kg/24 plants) ([5]; treatment 0-50-0): 12.598 kg/24 plants | Fruit weight Increase vs. CK (%) ([5]; treatment 0-50-0): 16.2% | Fruit number (on 24 plants) ([5]; treatment 0-50-75): 191AB | Fruit number Increase vs. CK (%) ([5]; treatment 0-50-75): 4.4% | Fruit weight (kg/24 plants) ([5]; treatment 0-50-75): 11.352 kg/24 plants | Fruit weight Increase vs. CK (%) ([5]; treatment 0-50-75): 4.7% | Fruit number (on 24 plants) ([5]; treatment 50-0-0): 206AB | Fruit number Increase vs. CK (%) ([5]; treatment 50-0-0): 12.6% | Fruit weight (kg/24 plants) ([5]; treatment 50-0-0): 11.916 kg/24 plants | Fruit weight Increase vs. CK (%) ([5]; treatment 50-0-0): 9.9% | Fruit number (on 24 plants) ([5]; treatment 50-50-0): 219A | Fruit number Increase vs. CK (%) ([5]; treatment 50-50-0): 19.7% | Fruit weight (kg/24 plants) ([5]; treatment 50-50-0): 12.567 kg/24 plants | Fruit weight Increase vs. CK (%) ([5]; treatment 50-50-0): 15.9% | Fruit number (on 24 plants) ([5]; treatment 50-75-0): 199AB | Fruit number Increase vs. CK (%) ([5]; treatment 50-75-0): 8.7% | Fruit weight (kg/24 plants) ([5]; treatment 50-75-0): 11.421 kg/24 plants | Fruit weight Increase vs. CK (%) ([5]; treatment 50-75-0): 5.3%
